Assay results published in the NIST ThermoML archive (doi:10.1016/j.fluid.2009.09.013).
Numbers after ± are expanded uncertainties.

How the values were obtained:
[1] = Molar enthalpy of transition or fusion; details: Metastable crystal; DSC
[2] = Crystal; DTA

With `CC(C)(C)c1cc(CCC(=O)OCC(COC(=O)CCc2cc(C(C)(C)C)c(O)c(C(C)(C)C)c2)(COC(=O)CCc2cc(C(C)(C)C)c(O)c(C(C)(C)C)c2)COC(=O)CCc2cc(C(C)(C)C)c(O)c(C(C)(C)C)c2)cc(C(C)(C)C)c1O` the “Molar enthalpy of transition or fusion” value [1] was 15.8 ± 0.43 kcal/mol and the Normal melting temperature [2] was 112.60 ± 0.5 °C.
